According to patent publication US20080070939A1, “LOCAL […] COMPOSITIONS CONTAINING DEXTROROTATORY MORPHINAN DERIVATIVES OR PHARMACEUTICALLY ACCEPTABLE SALTS THEREOF” (CHI MEI FOUNDATION HOSPITAL, priority 2006, published 2008):
Counter-ions that a name gives are not always drawn. Like-named read-outs stand apart in the source and are kept apart here.

Legend:
[1] = Systemic safety indices: mortality 24 hours after intraperitoneal injection in rats; settings: rat, in vivo, ip
Protocol: (§1) Essentially, each drug was injected intraperitoneally into the rats (n=8). The number of dead rats was observed after 24 hours, and the rate of mortality (%) was calculated. Thereafter, the doses of each drug and the relative mortality were plotted to obtain dose-mortality curves of the drugs. […] The safety index (LD50/ED50) of each drug was calculated using the LD50 thus obtained and the ED50 obtained in the section “C. Potency evaluation” of this example.

rats = experiment: as above
Protocol: as §1

sciatic nerve = experiment: Sciatic nerve blockade after injection at the sciatic nerve notch in rats; format: in vivo; design: AUC of time-% PE curve, sciatic nerve blockade of motor function / AUC of time-% PE curve, sciatic nerve blockade of proprioception / AUC of time-% PE curve, sciatic nerve blockade of nociceptive reaction: unit not given beside the values; settings: for ED50: Rattus norvegicus
Protocol: Male Sprague-Dawley rats (weighing about 300 to 350 g); for each dose of each drug, n=6.
In brief, the rats were slightly anesthetized by inhalation of a low concentration of sevoflurane. Then, 200 μL of tested drugs were injected at the sciatic nerve notch at the left hind limb of the rat using a 27-gauge needle connected to a tuberculin syringe (Becton Dickinson, USA, model BND309623-BX). Thereafter, development of sciatic nerve blockade was observed from the paralysis of the left hind limb of the rat. The right hind limb served as a control during the subsequent functional assay
For proprioception, the front half of the rat body and the right hind limb were off the ground at the same time so that the rat was standing on the left hind limb during the measurement.
The differences resided in that: The sciatic nerve notch injections of ED25, ED50 and ED75 were conducted based on the method described in the preceding section “A. Drug injection” of this example. Evaluations of motor function, proprioception and nociceptive reaction were conducted based on the method described in section “B. Neurobehavioral evaluations” of this example.
The differences resided in that: Before the statistical analysis, Shapiro-Wilk test was used to evaluate whether the data were, theoretically, normally distributed.

[2] = dosage of 6.7 mg/kg, sciatic nerve notch injection, rats
[3] = rats, 2ED50 when administered independently, ED50 of each drug when co-administered, mean ± SEM

SMILES: COc1ccc2c(c1)[C@]13CCCC[C@@H]1[C@H](C2)N(C)CC3 [Dextromethorphan hydrobromide monohydrate]
- LD50 at 24 h [1]: 138 mg/kg
- systemic safety index relative to that of lidocaine hydrochloride (rats; LD50/ED50, rats): 2.4 times
- safety index LD50/ED50 (rats; LD50 intraperitoneal / ED50 of infiltrative cutaneous anesthesia, rats): 67.3
- sciatic nerve blocking effect on nociceptive reaction compared with motor function (sciatic nerve; ED50 basis, p<0.01, rats): more potent sciatic nerve blocking effect on nociceptive reaction than on motor function
- ED50 (sciatic nerve; read-out: Mean ED50): 3.72 mg/kg
- ED50 (sciatic nerve; read-out: Motor function ED50 (95% CI)): 3.95 mg/kg
- ED50 (sciatic nerve; read-out: Nociceptive reaction ED50 (95% CI)): 3.49 mg/kg
- ED50 (sciatic nerve; read-out: Proprioception ED50 (95% CI)): 3.73 mg/kg
- % MPE of sciatic nerve blockade of motor function (sciatic nerve; [2]): about 71±7 % MPE
- % MPE of sciatic nerve blockade of nociceptive reaction (sciatic nerve; [2]): ~83±11 % MPE
- % MPE of sciatic nerve blockade of proprioception (sciatic nerve; [2]): ~78±7 % MPE
- duration of sciatic nerve blockade of motor function (sciatic nerve; [2]): about 77±10 minutes
- duration of sciatic nerve blockade of nociceptive reaction (sciatic nerve; [2]): ~85 ± 11 min
- duration of sciatic nerve blockade of proprioception (sciatic nerve; [2]): ~78 ± 8 min
- effect of co-administration with lidocaine hydrochloride on sciatic nerve blockades (sciatic nerve; rats, ED50 of each drug): additive effect
- AUC of time-% PE curve, sciatic nerve blockade of motor function (sciatic nerve; [3]): 4056 ± 212
- AUC of time-% PE curve, sciatic nerve blockade of nociceptive reaction (sciatic nerve; [3]): 6295 ± 643
- AUC of time-% PE curve, sciatic nerve blockade of proprioception (sciatic nerve; [3]): 5498 ± 507
- duration of sciatic nerve blockade compared with lidocaine hydrochloride (sciatic nerve; same effective doses (ED25, ED50 or ED75), rats): longer reaction duration
